The target of this assay is human NaV 1.8 channels stably expressed in HEK 293 cells (Homo sapiens (Human), UniProt Q9Y5Y9). The experiment in a line: Nav1.8 Qube automated patch-clamp assay. As to conditions: human NaV1.8 in HEK 293 cells, whole-cell voltage clamp, room temperature; read-out: IC50 values (nM) for Examples in the Nav1.8 Qube Assay. Type of assay: cell-based. A digest of the protocol: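 Whole-cell voltage clamp at room temperature on HEK293 cells; from −90 mV, a 10 s 1 Hz train of 20 ms pulses to 10 mV (repolarising to −67 mV) was applied. Peak currents at pulses 1 and 10 gave resting- and inactivated-state inhibition; IC50 fitted by Hill equation. Internal CsF/CsCl buffer.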
Chain of human NaV 1.8 channels stably expressed in HEK 293 cells (Q9Y5Y9 whole entry): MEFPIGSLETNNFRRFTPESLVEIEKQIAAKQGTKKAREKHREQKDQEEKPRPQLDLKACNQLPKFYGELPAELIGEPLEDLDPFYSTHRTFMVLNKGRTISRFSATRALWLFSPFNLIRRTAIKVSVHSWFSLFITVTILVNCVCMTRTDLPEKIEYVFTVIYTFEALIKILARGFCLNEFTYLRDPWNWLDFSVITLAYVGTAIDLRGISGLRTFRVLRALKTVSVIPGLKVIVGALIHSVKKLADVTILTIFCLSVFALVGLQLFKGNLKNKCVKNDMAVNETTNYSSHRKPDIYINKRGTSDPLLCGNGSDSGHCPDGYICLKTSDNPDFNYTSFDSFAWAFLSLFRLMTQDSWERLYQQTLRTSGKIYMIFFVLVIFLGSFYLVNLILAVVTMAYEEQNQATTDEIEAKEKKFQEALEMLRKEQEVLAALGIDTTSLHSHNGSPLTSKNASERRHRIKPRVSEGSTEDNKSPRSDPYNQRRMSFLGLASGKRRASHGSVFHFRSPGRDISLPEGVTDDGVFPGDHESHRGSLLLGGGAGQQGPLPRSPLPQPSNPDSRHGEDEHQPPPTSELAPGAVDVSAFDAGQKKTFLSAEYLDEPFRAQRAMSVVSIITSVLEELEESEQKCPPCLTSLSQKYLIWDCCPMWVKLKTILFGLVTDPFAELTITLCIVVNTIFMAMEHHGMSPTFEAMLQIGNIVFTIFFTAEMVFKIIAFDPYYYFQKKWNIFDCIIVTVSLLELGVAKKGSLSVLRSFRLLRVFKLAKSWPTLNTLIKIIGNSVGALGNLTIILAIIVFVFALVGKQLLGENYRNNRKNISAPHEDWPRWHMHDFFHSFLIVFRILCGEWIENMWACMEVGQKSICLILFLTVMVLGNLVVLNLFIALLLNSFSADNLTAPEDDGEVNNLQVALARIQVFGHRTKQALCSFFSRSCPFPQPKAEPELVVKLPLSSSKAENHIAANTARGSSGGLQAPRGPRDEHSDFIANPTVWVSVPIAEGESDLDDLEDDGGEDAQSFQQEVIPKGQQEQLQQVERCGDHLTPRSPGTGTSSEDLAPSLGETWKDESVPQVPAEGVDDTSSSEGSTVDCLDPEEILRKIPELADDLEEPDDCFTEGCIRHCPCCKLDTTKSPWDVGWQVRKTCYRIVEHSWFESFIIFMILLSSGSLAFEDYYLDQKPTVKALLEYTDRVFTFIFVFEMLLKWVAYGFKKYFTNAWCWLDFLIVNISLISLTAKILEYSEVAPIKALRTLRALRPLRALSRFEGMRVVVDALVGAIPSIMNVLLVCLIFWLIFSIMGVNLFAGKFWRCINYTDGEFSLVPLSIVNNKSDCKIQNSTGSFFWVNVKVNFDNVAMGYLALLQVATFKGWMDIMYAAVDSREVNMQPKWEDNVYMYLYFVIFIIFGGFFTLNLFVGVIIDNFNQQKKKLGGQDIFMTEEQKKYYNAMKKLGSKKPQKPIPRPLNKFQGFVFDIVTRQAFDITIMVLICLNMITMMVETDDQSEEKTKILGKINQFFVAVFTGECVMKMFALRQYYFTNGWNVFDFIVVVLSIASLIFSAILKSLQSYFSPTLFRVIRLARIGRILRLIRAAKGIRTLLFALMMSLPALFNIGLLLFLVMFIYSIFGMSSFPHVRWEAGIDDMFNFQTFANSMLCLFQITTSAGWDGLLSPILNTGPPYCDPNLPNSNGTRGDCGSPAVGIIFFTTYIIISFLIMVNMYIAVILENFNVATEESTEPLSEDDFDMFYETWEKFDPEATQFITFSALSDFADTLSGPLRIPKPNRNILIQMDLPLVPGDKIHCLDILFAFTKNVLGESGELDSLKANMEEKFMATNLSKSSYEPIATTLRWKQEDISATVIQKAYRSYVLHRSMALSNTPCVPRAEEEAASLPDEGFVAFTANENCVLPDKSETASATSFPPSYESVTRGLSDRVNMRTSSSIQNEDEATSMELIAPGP
(Patch clamp records ionic current or voltage across a cell membrane.)

The values that follow come from patent US20240246932A1 (Merck Sharp & Dohme LLC, priority 2021, published 2024).

The term IC50 denotes the point on the concentration scale where inhibition reaches its midpoint.

Consider `C[C@@H]1C(=O)NCCN1C(=O)NC(c1ccc(F)c(Cl)c1)c1ccc(Cl)c(C(F)(F)F)n1` (single isomer, unassigned) [Example 79, (2R)-N-((R or S)-(3-chloro-4-fluoro-phenyl)(5-chloro-6-(trifluoromethyl)pyridin-2-yl)methyl)-2-methyl-3-oxopiperazine-1-carboxamide], for which the IC50 is 0.58 nM. `C[C@@H]1C(=O)NCCN1C(=O)NC(c1ccc(C(F)(F)F)nc1)c1ccc(F)c(Cl)c1` (single isomer, unassigned) [Example 16A, (2R)-N-((R or S)-(3-chloro-4-fluorophenyl)(6-(trifluoromethyl)pyridin-3-yl)methyl)-2-methyl-3-oxopiperazine-1-carboxamide]: the half-maximal inhibitory concentration (IC50) came out at 13.5 nM. With `C[C@@H]1C(=O)NCCN1C(=O)NC(c1ccc(Cl)c(F)c1)c1ccc(F)c(C(F)(F)F)n1` (single isomer, unassigned) [Example 53A, (2R)-N-((R or S)-(4-chloro-3-fluoro-phenyl)(5-fluoro-6-(trifluoromethyl)pyridin-2-yl)methyl)-2-methyl-3-oxopiperazine-1-carboxamide], the 50% inhibitory concentration (IC50) was 68.9 nM. Regarding `C[C@@H]1C(=O)NCCN1C(=O)NC(c1ccc(OC(F)(F)F)c(Cl)c1)c1coc(C(F)(F)F)n1` (single isomer, unassigned) [Example 64A, (2R)-N-((R or S)-(3-chloro-4-(trifluoro-methoxy)phenyl)(2-(trifluoromethyl)oxazol-4-yl)methyl)-2-methyl-3-oxopiperazine-1-carboxamide], the 50% inhibitory concentration (IC50) stood at 4.96 nM. Then `C[C@@H]1C(=O)NCCN1C(=O)NC(c1ccc(F)c(Cl)c1)c1ccc2nc(C(F)(F)F)cn2c1` (single isomer, unassigned) [Example 11B], with 196 nM; and `C[C@@H]1C(=O)NCCN1C(=O)NC(c1cnc(C(F)(F)F)c(Cl)c1)c1ccc(Cl)c(C(F)(F)F)n1` (single isomer, unassigned) [Example 83B], with 3.14 nM.

As to `C[C@@H]1C(=O)NCCN1C(=O)NC(c1cnc(C(F)(F)F)c(Cl)c1)c1ccc(Cl)c(C#N)c1` (single isomer, unassigned) [Example 23A, (2R)-N-((R or S)-(4-chloro-3-cyano-phenyl)(5-chloro-6-(trifluoromethyl)pyridin-3-yl)methyl)-2-methyl-3-oxopiperazine-1-carboxamide], the IC50 amounted to 17 nM. For `C[C@@H]1C(=O)NCCN1C(=O)NC(c1cnc(OCC(F)(F)F)c(F)c1)c1ccc(F)c(C(F)(F)F)n1` (single isomer, unassigned) [Example 48B], the IC50 is 209 nM. Take `C[C@@H]1C(=O)NCCN1C(=O)NC(c1ccc(C(F)(F)F)nc1)c1ccc(Cl)c(Cl)c1F` (single isomer, unassigned) [Example 29A, (2R)-N-((R or S)-(3,4-dichloro-2-fluoro-phenyl)(6-(trifluoro-methyl)pyridin-3-yl)methyl)-2-methyl-3-oxopiperazine-1-carboxamide]: the IC50 was 21.4 nM. With `O=C1NCCN(C(=O)NC(c2cnc(C(F)(F)F)c(F)c2)c2ccc(F)c(Cl)c2F)C1C1CC1` (single isomer, unassigned) [Example 37B, N-((R or S)-(3-chloro-2,4-difluorophenyl)(5-fluoro-6-(trifluoro-methyl)pyridin-3-yl)methyl)-(S or R)-2-cyclopropyl-3-oxopiperazine-1-carboxamide], the IC50 was determined as 188 nM. With `C[C@@H]1C(=O)NCCN1C(=O)NC(c1ccc(OCC(F)(F)F)nc1)c1cc(F)c(F)c(Cl)c1` (single isomer, unassigned) [Example 7B, (2R)-N-((S or R)-(3-chloro-4,5-difluoro-phenyl)(6-(2,2,2-tri-fluoroethoxy)pyridin-3-yl)methyl)-2-methyl-3-oxo-piperazine-1-carboxamide], the half-maximal inhibitory concentration (IC50) turned out to be 19.6 nM. As to `C[C@@H]1C(=O)NCCN1C(=O)NC(c1ccc(OC(F)F)nc1)c1ccc(F)c(Cl)c1` (single isomer, unassigned) [Example 73B, (2R)-N-((R or S)-(3-chloro-4-fluoro-phenyl)(6-(difluoro-methoxy)pyridin-3-yl)methyl)-2-methyl-3-oxopiperazine-1-carboxamide], the 50% inhibitory concentration (IC50) is 20.6 nM. For `C[C@@H]1C(=O)NCCN1C(=O)NC(c1ccc(OC(F)(F)F)c(Cl)c1)c1coc(C(F)(F)F)n1` (single isomer, unassigned) [Example 64B, (2R)-N-((S or R)-(3-chloro-4-(trifluoro-methoxy)phenyl)(2-(trifluoromethyl)oxazol-4-yl)methyl)-2-methyl-3-oxopiperazine-1-carboxamide], the concentration for half-maximal inhibition (IC50) stood at 3.5 nM.

As for `C[C@@H]1C(=O)NCCN1C(=O)NC(c1ccc(C(F)F)nc1)c1ccc(F)c(Cl)c1F` (single isomer, unassigned) [Example 32A, (2R)-N-((R or S)-(3-chloro-2,4-difluoro-phenyl)(6-(difluoro-methyl)pyridin-3-yl)methyl)-2-methyl-3-oxopiperazine-1-carboxamide], the 50% inhibitory concentration (IC50) was 96.8 nM. As for `C[C@@H]1C(=O)NCCN1C(=O)NC(c1ccc(OC(F)(F)F)cc1)c1cc(C(F)(F)F)n[nH]1` (single isomer, unassigned) [Example 87B, (2R)-2-methyl-3-oxo-N-((S or R)-(4-(trifluoromethoxy)phenyl)(3-(trifluoromethyl)-1H-pyrazol-5-yl)methyl)piperazine-1-carboxamide], the concentration for half-maximal inhibition (IC50) was 10.8 nM. With `C[C@@H]1C(=O)NCCN1C(=O)NC(c1cccc(OC(F)(F)F)c1)c1ccc(F)c(C(F)(F)F)n1` (single isomer, unassigned) [Example 58A, (2R)-N-((R or S)-(5-fluoro-6-(trifluoro-methyl)pyridin-2-yl)(3-(trifluoromethoxy)phenyl)methyl)-2-methyl-3-oxopiperazine-1-carboxamide], the IC50 is 3.6 nM.

Take `C[C@@H]1C(=O)NCCN1C(=O)NC(c1cnc(OC(F)F)nc1)c1ccc(F)c(Cl)c1F` (single isomer, unassigned) [Example 74A, (2R)-N-((R or S)-(3-chloro-2,4-difluoro-phenyl)(2-(difluoro-methoxy)pyrimidin-5-yl)methyl)-2-methyl-3-oxopiperazine-1-carboxamide]: the IC50 was determined as 71.1 nM. Regarding `C[C@@H]1C(=O)NCCN1C(=O)NC(c1ccc(F)c(Cl)c1)c1cccc(OC(F)F)n1` (single isomer, unassigned) [Example 72B], the IC50 stood at 25.3 nM. With `C[C@@H]1C(=O)NCCN1C(=O)NC(c1cnn(-c2ccc(F)cc2)c1)c1ccc(F)c(Cl)c1F` (single isomer, unassigned) [Example 65B, (2R)-N-((S or R)-(3-chloro-2,4-difluoro-phenyl)(1-(4-fluoro-phenyl)-1H-pyrazol-4-yl)methyl)-2-methyl-3-oxopiperazine-1-carboxamide], the IC50 is 89.3 nM. For `C[C@@H]1C(=O)NCCN1C(=O)NC(c1ccc(OC(F)F)nc1)c1ccc(F)c(Cl)c1F` (single isomer, unassigned) [Example 31B, (2R)-N-((S or R)-(3-chloro-2,4-difluoro-phenyl)(6-(difluoro-methoxy)pyridin-3-yl)methyl)-2-methyl-3-oxopiperazine-1-carboxamide], the concentration for half-maximal inhibition (IC50) was found to be 16.1 nM. For `C[C@@H]1C(=O)NCCN1C(=O)NC(c1ccc(C(F)(F)F)nc1)c1ccc(Cl)c(Cl)c1F` (single isomer, unassigned) [Example 29B], the IC50 came out at 3.42 nM. As for `C[C@@H]1C(=O)NCCN1C(=O)NC(c1ccc(F)c(Cl)c1)c1cc(C(F)(F)F)n[nH]1` (single isomer, unassigned) [Example 85B], the IC50 was determined as 5.47 nM.

Turning to `C[C@@H]1C(=O)NCCN1C(=O)NC(c1ccc(OC(F)(F)F)cc1)c1cnc(C(F)(F)F)c(Cl)c1` (single isomer, unassigned) [Example 20B, (2R)-N-((S or R)-(5-chloro-6-(trifluoro-methyl)pyridin-3-yl)(4-(trifluoromethoxy)phenyl)methyl)-2-methyl-3-oxopiperazine-1-carboxamide], the IC50 worked out at 4 nM. In the case of `C[C@@H]1C(=O)NCCN1C(=O)NC(c1cnn(-c2ccc(F)cc2)c1)c1ccc(F)c(Cl)c1F` (single isomer, unassigned) [Example 65A, (2R)-N-((R or S)-(3-chloro-2,4-difluoro-phenyl)(1-(4-fluoro-phenyl)-1H-pyrazol-4-yl)methyl)-2-methyl-3-oxopiperazine-1-carboxamide] it was 8.05 nM; in that of `C[C@@H]1C(=O)NCCN1C(=O)NC(c1ccc(F)c(Cl)c1)c1cnn(CC(F)(F)F)c1` (single isomer, unassigned) [Example 67B, (2R)-N-((S or R)-(3-chloro-4-fluorophenyl)(1-(2,2,2-trifluoroethyl)-1H-pyrazol-4-yl)methyl)-2-methyl-3-oxopiperazine-1-carboxamide], 42 nM. In the case of `O=C1NCCN(C(=O)NC(c2cnc(C(F)(F)F)nc2)c2ccc(F)c(Cl)c2F)C1C1CC1` (single isomer, unassigned) [Example 41A, N-((R or S)-(3-chloro-2,4-difluorophenyl)(2-(trifluoromethyl)pyrimidin-5-yl)methyl)-(R or S)-2-cyclopropyl-3-oxopiperazine-1-carboxamide] it was 2020 nM; in that of `C[C@@H]1C(=O)NCCN1C(=O)NC(c1cnc(C(F)(F)F)c(Cl)c1)c1ccc(Cl)c(C(F)(F)F)n1` (single isomer, unassigned) [Example 83A], 6.51 nM; in that of `C[C@@H]1C(=O)NCCN1C(=O)NC(c1cnc(C(F)(F)F)nc1)c1ccc(Cl)c(Cl)c1` (single isomer, unassigned) [Example 28B, (2R)-N-((S or R)-(3,4-dichlorophenyl)(2-(trifluoromethyl)pyrimidin-5-yl)methyl)-2-methyl-3-oxopiperazine-1-carboxamide], 43.7 nM.
